From patent US20090275567A1, “2-HETEROCYCLOAMINO-4-IMIDAZOLYLPYRIMIDINES AS AGENTS FOR THE INHIBITION OF CELL PROLIFERATION” (priority 2006, published 2009)

Target: T1, CDK2/Cyclin E (Homo sapiens, UniProt P24941)
T1 construct: made in house; host or cells: Sf21 (Spodoptera frugiperda) insect cells, baculovirus co-infection; the GST-Rb substrate was made in E. coli BL21 (DE3) pLysS
Assay: in vitro kinase assay (Scintillation Proximity Assay), CDK2/Cyclin E, GST-Rb substrate
Type: biochemical
Details: CDK2/Cyclin E partially-purified enzyme, 0.2 μM ATP, read-out: CDK2 inhibitory activity IC50
Procedure: The compounds were tested in an in vitro kinase assay in 96 well format using Scintillation Proximity Assay (SPA—obtained from Amersham) for measuring incorporation of [γ-33-P]-Adenosine Triphosphate into a test substrate (GST-Retinoblastoma protein; GST-Rb). In each well was placed the compound to be tested (diluted in DMSO and water to correct concentrations) and in control wells either roscovitine as an inhibitor control or DMSO as a positive control. […]
The plates were sealed with Topseal-S plate sealers, left for two hrs then spun at 2500 rpm, 1124×g., for 5 mins. The plates were read on a Topcount for 30 seconds per well. […]
E. coli paste was resuspended in 10 ml/g of NETN buffer (50 mM Tris pH 7.5, 120 mM NaCl, 1 mM EDTA, 0.5% v/v NP-40, 1 mM PMSF, 1 ug/ml leupeptin, 1 ug/ml aprotinin and 1 ug/ml pepstatin) and sonicated for 2×45 seconds per 100 ml homogenate. […] The final product was analysed by Sodium Dodeca Sulfate (SDS) PAGE (Polyacrylamide gel) using 8-16% Tris-Glycine gels (Novex, San Diego, USA).
The open reading frames of CDK2 and Cyclin E were isolated by reverse transcriptase-PCR using HeLa cell and activated T cell mRNA as a template and cloned into the insect expression vector pVL1393 (obtained from Invitrogen 1995 catalogue number: V1392-20). […]

- IC50: 95 nM
SMILES: CC(=O)N1CCC(Nc2nccc(-c3cnc(C)n3C(C)C)n2)CC1 [Example 29, 1-[4-[[4-(2-Methyl-3-propan-2-yl-imidazol-4-yl)pyrimidin-2-yl]amino]-1-piperidinyl]ethanone]
